The test system of this assay is HUVECs. Kind of assay: Cell viability assay (MTT assay), growth inhibition of HUVECs. The format is cell-based, human. The following applies: Homo sapiens, HUVEC, 24 h, MTT assay, 24 h treatment, 5% FBS-stimulated HUVECs. The procedure:
Human umbilical vein endothelial cells (HUVECs; #8000) were purchased from the ScienCell Research Laboratories (San Diego, Calif., USA). The cells were seeded on gelatin-coated culture dishes and grown in the commercial endothelial cell medium (#1001; ScienCell) containing 5% fetal bovine serum (FBS; #0025; ScienCell), 30 μg/mL endothelial cell growth supplements (ECGS; #1052; ScienCell), 100 units/mL penicillin G, and 100 μg/mL streptomycin sulfates (#0503; ScienCell). Cells at passage 3-6 were used for experiments. Mouse Lewis lung carcinoma cell line 1 (LLC1; #60050) was bought from the Food Industry Research and Development Institute (Hsinchu, Taiwan) and cultured in Gibco® Dulbecco's modified Eagle's medium (#12800-017; Invitrogen, Carlsbad, Calif., USA) supplemented with 10% FBS (HyClone, Logan, Utah, USA), 4 mM L-glutamine, 1.5 g/L sodium bicarbonate, 100 units/mL penicillin G, and 100 μg/mL streptomycin. All cells were incubated in a humidified 5% CO2 atmosphere at 37° C. and culture media was changed every 2˜3 days.
The experiments were performed according to our previous study with minor modifications (Pan et al., 2010). Briefly, the cells (2×10^4 cells/well) were seeded and grown under normal culture medium for 24 h. After another 24 h of starvation with 0.5% FBS, the cells were treated with several concentrations (1, 2, 4, 8, and 16 μM) of the tested compounds for 24 h and then incubated with 5 mg/mL of MTT (3-[4,5-dimethyl thiazol-2-yl]-2,5-diphenyl tetrazolium bromide) for 2 h. After that, the cells were washed with 1×PBS and then dimethyl sulfoxide (DMSO) was added to each well. Absorbance values at 570 nm were determined for each well using 650 nm as the reference wavelength. The absorbance of the control group (treated with 5% or 10% FBS alone) was defined as 100%.

What is called GI50 is the concentration giving 50% growth inhibition. Lower therefore signals more potent growth inhibition.

`COc1cc([C@H]2Oc3c(OC)cc(/C=C/C=O)cc3[C@@H]2C)ccc1O` [K20A] gave a GI50 of 24 µM.

Regarding `COC(=O)/C=C/c1cc(OC(C)=O)c2oc(-c3ccc(OC(C)=O)c(OC(C)=O)c3)c(C(=O)OC)c2c1` [K20B], the 50% growth inhibitory concentration (GI50) came to 24 µM.

`COC(=O)/C=C/c1cc(OC)c2c(c1)[C@H](C(=O)OC)[C@@H](c1ccc(O)c(OC)c1)O2` [K20L] had a GI50 of 32 µM.

`COC(=O)/C=C/c1ccc(O)c(O)c1` [Methyl caffeate, reference compound]: the GI50 was 80 µM.

Values taken from US11066378B2, “Caffeic acid derivatives for anti-angiogenesis” (Taipei Medical University, priority 2015, dated 2021).
